This is an account of results in US20160052898A1, “NOVEL COMPOUNDS” (BAYER PHARMA AKTIENGESELLSCHAFT, priority 2013, published 2016).

Each structure is given as a SMILES string.

What all share (format): cell-based
Experiment [1] concerns constitutive active colorectal cancer cell (CRC) Wnt pathway. Put plainly: HCT116 Super TopFlash cellular reporter assay (constitutive active Wnt pathway). To be noted: Homo sapiens, HCT-116, 36 h, HCT116 TOP reporter cells, luciferase expression, 36 hours incubation, 50 μM to 15 nM. Summed up: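 Luciferase luminescence served as the Wnt read-out after 36 h of compound treatment at 37 °C. Compound came from a pre-dilution series (50 μM down to 15 nM, 3.16-fold steps) in CAFTY buffer. Cells were stable HCT116 TOP reporter cells, with matched FOP-vector control cells tested in parallel, seeded a day earlier.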
Background: A reporter such as luciferase makes a cellular process visible.

For experiment [2], the system named is HCT116 FOP control reporter cell line. Put plainly: HCT116 FOP control vector reporter assay (non-functional TCF elements). The conditions noted are these: Homo sapiens, HCT-116, 36 h, HCT116 FOP control reporter cells, luciferase expression, 36 hours incubation, 50 μM to 15 nM; read-out: HCT116 FOPFlash IC50. Summed up: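 Stable HCT116 line carrying the non-functional FOP luciferase construct, 10000 cells/well plated 24 hrs before. Compounds 50 μM to 15 nM (3.16-fold steps) in CAFTY buffer pH 7.4 with 2 mM Ca2+, 36 hours at 37° C; luciferase luminescence read.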

In experiment [3] the test system is wildtype Wnt pathway. The experiment is described as follows: HEK293 Super TopFlash cellular reporter assay, Wnt-3a stimulated (wildtype Wnt pathway). To be noted: Homo sapiens; HEK293 TOP reporter cells, EC50 concentration of recombinant Wnt-3a, 16 hours incubation; read-out: HEK TOP OncoFlash IC50. Summed up:
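Stable HEK293 Super TopFlash and FOP reporter cells stimulated with recombinant human Wnt-3a (2500–5 ng/ml, two-fold steps). Compounds tested 50 μM to 15 nM in 3.16-fold steps in CAFTY buffer pH 7.4 with 2 mM Ca2+ and 0.01% BSA; luciferase read-out.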

Experiment [4] has as its system HEK293 FOP control reporter cell line. The experiment is described as follows: HEK293 FOP control vector reporter assay. The conditions noted are these: Homo sapiens; HEK293 FOP control reporter cells, EC50 concentration of recombinant Wnt-3a, 16 hours incubation; read-out: HEK FOP IC50. Summed up:
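Stable HEK293 cells carrying FOP control vector (non-functional TCF sites), 10000 cells/well plated 24 h before, stimulated with recombinant human Wnt-3a at 2500–5 ng/ml in two-fold steps. Compounds from 50 μM to 15 nM (3.16-fold) in CAFTY buffer pH 7.4 with 2 mM Ca2+, 0.01% BSA, run in parallel with TOP line; luciferase read-out.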

What is called IC50 is the concentration at which inhibition is half-maximal. In the case of `O=C(CN1CCOCC1)Nc1cc(C(=O)Nc2ccc(-c3ccccc3)cc2)ccc1OC1CC1` [Example 112, N-(biphenyl-4-yl)-4-(cyclopropyloxy)-3-[(morpholin-4-ylacetyl)amino]benzamide], the concentration for half-maximal inhibition (IC50) in experiment [1] was 83.2 nM; in experiment [2] it was ≥ 50000 nM; in experiment [3] it was 77 nM; in experiment [4], ≥ 50000 nM.
For `CN1CCN(C2(C(=O)Nc3cc(C(=O)Nc4ccc(-c5ccccc5)cc4)ccc3OC3CC3)CC2)CC1` [Example 114, N-(biphenyl-4-yl)-4-(cyclopropyloxy)-3-({[1-(4-methylpiperazin-1-yl)cyclopropyl]carbonyl}amino)benzamide], the IC50 in experiment [1] is 15.8 nM; in experiment [2], 21000 nM; in experiment [3], 36 nM; in experiment [4], ≥ 50000 nM.
On to `O=C(Nc1ccc(-c2ccccc2)cc1)c1ccc(OC2CC2)c(NC(=O)C2(N3CCN(C4CC4)CC3)CC2)c1` [Example 115, N-(biphenyl-4-yl)-4-(cyclopropyloxy)-3-({[1-(4-cyclopropylpiperazin-1-yl)cyclopropyl]carbonyl}amino)benzamide], for which the IC50 in experiment [1] was 36.2 nM; in experiment [2], ≥ 50000 nM; in experiment [3] it was 170 nM; in experiment [4], ≥ 50000 nM.
On to `CS(=O)(=O)Cc1ccc(C(=O)Nc2ccc(-c3ccccc3)cc2)cc1NC(=O)CN1CCOCC1` [Example 124, N-(biphenyl-4-yl)-4-[(methylsulfonyl)methyl]-3-[(morpholin-4-ylacetyl)amino]benzamide], for which the half-maximal inhibitory concentration (IC50) in experiment [1] was 34 nM; in experiment [2] it was ≥ 50000 nM; in experiment [3] it was 110 nM; in experiment [4], 11000 nM.
On the same counts, the results for `O=C(CN1CCOCC1)Nc1cc(C(=O)Nc2ccc(-c3ccccc3)cc2)ccc1OCC(F)(F)F` [Example 127, N-(biphenyl-4-yl)-3-[(morpholin-4-ylacetyl)amino]-4-(2,2,2-trifluoroethoxy)benzamide] are 44.5 nM, ≥ 50000 nM, 110 nM and 31000 nM.
